In ChEMBL document CHEMBL4715808, “Discovery of (1S,2R,3S,4S,5R,6R)-2-Amino-3-[(3,4-difluorophenyl)sulfanylmethyl]-4-hydroxy-bicyclo[3.1.0]hexane-2,6-dicarboxylic Acid Hydrochloride (LY3020371·HCl): A Potent, Metabotropic Glutamate 2/3 Receptor Antagonist with Antidepressant-Like Activity” (J Med Chem, 2016) one finds IC50 and Ki data, which are given here for 19 compounds.

The target in assay [1] is T1, Metabotropic glutamate receptor 2 (Homo sapiens, UniProt Q14416). Kind of assay: […] at mGlu2 (unknown origin).
The target in assay [2] is T2, Metabotropic glutamate receptor 3 (Homo sapiens, UniProt Q14832). The assay can be described thus: Antagonist activity at human recombinant mGlu3 receptor stably expressed in golden hamster AV12 cells co-expressing rat EAAT1 assessed as reduction in DCG IV-induced inhibition of forskolin-stimulated cAMP accumulation preincubated for 20 mins followed by incubation with cAMP-d2 conjugate and anti-cAMP cryptate for 1 hr by HTRF assay. The format is functional, cell-based.

Assay [3] has as its target T2, Metabotropic glutamate receptor 3. The assay can be described thus: Displacement of [3H]-LY459477 from recombinant human mGlu3 receptor expressed in hamster AV12 cell membranes co-expressing rat EAAT1 incubated for 90 mins by top count scintillation method. On the set-up: species or system Cell membrane.
The target of assay [4] is T1, Metabotropic glutamate receptor 2.
Description: Displacement of [3H]-LY459477 from recombinant human mGlu2 receptor expressed in hamster AV12 cell membranes co-expressing rat EAAT1 incubated for 90 mins by top count scintillation method
For assay [5] the target is unchanged. This is another data set of the same source.
Description: Antagonist activity at human recombinant mGlu2 receptor stably expressed in golden hamster AV12 cells co-expressing rat EAAT1 assessed as reduction in DCG IV-induced inhibition of forskolin-stimulated cAMP accumulation preincubated for 20 mins followed by incubation with cAMP-d2 conjugate and anti-cAMP cryptate for 1 hr by HTRF assay
Assay [6] has as its target T2, Metabotropic glutamate receptor 3. The assay can be described thus: […] at mGlu3 (unknown origin).

T1 sequence (Q14416 whole entry): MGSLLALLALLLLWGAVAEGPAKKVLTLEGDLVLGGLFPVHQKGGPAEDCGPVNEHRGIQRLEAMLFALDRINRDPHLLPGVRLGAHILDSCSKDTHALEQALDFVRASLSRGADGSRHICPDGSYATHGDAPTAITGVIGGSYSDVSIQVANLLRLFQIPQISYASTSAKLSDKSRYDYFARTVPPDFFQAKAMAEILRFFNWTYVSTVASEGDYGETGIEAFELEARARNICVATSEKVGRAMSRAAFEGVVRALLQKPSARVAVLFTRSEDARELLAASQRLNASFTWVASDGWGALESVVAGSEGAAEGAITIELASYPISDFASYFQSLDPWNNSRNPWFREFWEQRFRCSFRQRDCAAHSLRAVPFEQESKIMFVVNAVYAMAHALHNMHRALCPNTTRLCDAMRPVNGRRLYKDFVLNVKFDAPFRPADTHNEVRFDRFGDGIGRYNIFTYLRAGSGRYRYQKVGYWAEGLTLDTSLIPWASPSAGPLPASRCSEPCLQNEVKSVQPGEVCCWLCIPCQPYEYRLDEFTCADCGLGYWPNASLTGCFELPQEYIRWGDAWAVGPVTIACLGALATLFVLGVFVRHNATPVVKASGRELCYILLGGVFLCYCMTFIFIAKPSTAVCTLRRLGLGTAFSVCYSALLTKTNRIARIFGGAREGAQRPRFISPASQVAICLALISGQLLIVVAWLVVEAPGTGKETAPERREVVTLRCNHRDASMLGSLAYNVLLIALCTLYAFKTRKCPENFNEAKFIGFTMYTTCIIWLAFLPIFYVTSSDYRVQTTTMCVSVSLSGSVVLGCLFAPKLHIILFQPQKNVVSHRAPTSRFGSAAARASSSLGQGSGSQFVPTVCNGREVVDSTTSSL
T2 sequence (Q14832 whole entry): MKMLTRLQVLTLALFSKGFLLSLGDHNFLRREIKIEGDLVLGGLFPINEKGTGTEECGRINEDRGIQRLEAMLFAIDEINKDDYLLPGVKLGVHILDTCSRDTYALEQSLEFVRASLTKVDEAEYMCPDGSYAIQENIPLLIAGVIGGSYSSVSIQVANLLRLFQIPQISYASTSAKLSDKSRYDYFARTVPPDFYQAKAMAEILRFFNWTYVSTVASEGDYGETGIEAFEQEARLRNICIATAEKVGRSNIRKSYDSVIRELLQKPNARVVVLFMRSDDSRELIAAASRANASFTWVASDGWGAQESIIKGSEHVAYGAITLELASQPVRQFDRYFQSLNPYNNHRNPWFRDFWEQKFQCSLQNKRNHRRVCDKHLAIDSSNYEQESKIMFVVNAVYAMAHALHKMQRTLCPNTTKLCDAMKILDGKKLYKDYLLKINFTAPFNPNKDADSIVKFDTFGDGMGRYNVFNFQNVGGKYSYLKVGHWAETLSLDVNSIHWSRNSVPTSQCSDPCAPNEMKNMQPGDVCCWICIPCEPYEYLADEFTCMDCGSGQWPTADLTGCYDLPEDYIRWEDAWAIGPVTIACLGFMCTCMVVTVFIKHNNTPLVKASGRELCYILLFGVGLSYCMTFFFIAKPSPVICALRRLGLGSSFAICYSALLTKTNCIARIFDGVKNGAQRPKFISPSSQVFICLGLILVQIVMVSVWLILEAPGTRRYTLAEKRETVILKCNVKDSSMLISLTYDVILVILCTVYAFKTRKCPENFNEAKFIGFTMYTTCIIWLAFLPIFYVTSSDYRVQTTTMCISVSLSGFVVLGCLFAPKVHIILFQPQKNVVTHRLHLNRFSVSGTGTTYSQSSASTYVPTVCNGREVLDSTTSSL

As a reminder, the IC50 is the midpoint of a concentration-inhibition curve. For the compound `N[C@@]1(C(=O)O)C[C@@H](O)[C@H]2[C@H](C(=O)O)[C@H]21`, in assay [1], the IC50 was determined as 8.6 nM.

As for `N[C@@]1(C(=O)O)C[C@H](O)[C@H]2[C@H](C(=O)O)[C@H]21`, the concentration for half-maximal inhibition (IC50) in assay [1] was found to be 22.6 nM.

As for `N[C@@]1(C(=O)O)[C@H](Cc2ccc(F)c(Cl)c2)C[C@H]2[C@H](C(=O)O)[C@H]21`, in assay [2], the IC50 is 110 nM.

One may read the Ki as a dissociation constant, usually derived from enzyme kinetics or from competition with a known ligand. For `CC(=O)N[C@H]1[C@H]2[C@H](C(=O)O)[C@H]2[C@](N)(C(=O)O)[C@@H]1CSc1ccc(F)c(C)c1`, the results for the Ki in assay [3] and in assay [4] were 7.7 nM and 9.2 nM, respectively. Also, the IC50 worked out at 26.2 nM in assay [5] and 12.4 nM in assay [2].

As to `N[C@]1(C(=O)O)[C@@H]2[C@@H](C(=O)O)[C@@H]2[C@H](O)[C@H]1CSc1ccc(Cl)c(Cl)c1`, the figures for the Ki in assay [3] and in assay [4] were 9.4 nM and 8.4 nM, respectively. Besides, the IC50 in assay [5] was 9.8 nM; in assay [2], 56.5 nM.

On to `CC(C)SC[C@@H]1[C@@H](O)[C@H]2[C@H](C(=O)O)[C@H]2[C@]1(N)C(=O)O`, for which the affinity in assay [4], expressed as Ki, was 1200 nM. The IC50 in assay [5] was determined as 2280 nM.

On to `N[C@]1(C(=O)O)[C@@H]2[C@@H](C(=O)O)[C@@H]2[C@H](O)[C@H]1CSc1ccccc1F`, for which the Ki amounted to 369 nM in assay [3] and 728 nM in assay [4]. The IC50 is 1440 nM in assay [5] and 967 nM in assay [2].

Regarding `Cc1cc(SC[C@@H]2[C@@H](N)[C@H]3[C@H](C(=O)O)[C@H]3[C@]2(N)C(=O)O)ccc1F`, the inhibition constant Ki in assay [3] was 36.1 nM; in assay [4], 24 nM. In addition, the IC50 in assay [5] turned out to be 45.4 nM; in assay [2], 163 nM.

Consider `Cc1ccc(SC[C@@H]2[C@@H](O)[C@H]3[C@H](C(=O)O)[C@H]3[C@]2(N)C(=O)O)cc1C`, for which, in assay [4], the Ki was 14.2 nM. Moreover, the IC50 in assay [5] was found to be 27.6 nM.

Regarding `N[C@]1(C(=O)O)[C@@H]2[C@@H](C(=O)O)[C@@H]2[C@H](O)[C@H]1CSc1ccccc1`, in assay [3], the Ki amounted to 19.2 nM. In assay [2], the IC50 was 202 nM.

In assay [4], `Cc1cc(SC[C@@H]2[C@@H](Sc3nc[nH]n3)[C@H]3[C@H](C(=O)O)[C@H]3[C@]2(N)C(=O)O)ccc1F` gave a Ki of 5.2 nM. Further, in assay [5], the IC50 is 6.6 nM.

For the compound `N[C@]1(C(=O)O)[C@@H]2[C@@H](C(=O)O)[C@@H]2[C@H](O)[C@H]1CSCc1ccc(Cl)c(Cl)c1`, the Ki amounted to 16.3 nM in assay [3] and 20.5 nM in assay [4]. Further, the results for the IC50 in assay [5] and in assay [2] were 49.4 nM and 62.3 nM, respectively.

As for `N[C@]1(C(=O)O)[C@@H]2[C@@H](C(=O)O)[C@@H]2[C@H](O)[C@H]1CSc1ccc(F)cc1`, the figures for the Ki in assay [3] and in assay [4] were 6.8 nM and 10.4 nM, respectively. Also, the values for the IC50 in assay [5] and in assay [2] were 20.2 nM and 41.9 nM, respectively.

On to `N[C@]1(C(=O)O)[C@@H]2[C@@H](C(=O)O)[C@@H]2[C@H](O)[C@@H]1CSc1ccccc1`, for which the Ki in assay [3] turned out to be 251 nM. For the same compound, the IC50 in assay [2] was 2410 nM.

Consider `N[C@]1(C(=O)O)[C@@H]2[C@@H](C(=O)O)[C@@H]2[C@@H](O)[C@@H]1CSc1ccccc1`, for which the Ki in assay [3] turned out to be 238 nM. In addition, the IC50 in assay [2] was 2160 nM.

As to `Cc1cc(SC[C@@H]2[C@@H](O)[C@H]3[C@H](C(=O)O)[C@H]3[C@]2(N)C(=O)O)ccc1F`, the Ki in assay [4] was 8.9 nM. The compound also had an IC50 in assay [5] of 17.2 nM.

Consider `N[C@]1(C(=O)O)[C@@H]2[C@@H](C(=O)O)[C@@H]2[C@@H](O)[C@H]1CSc1ccccc1`, for which the Ki in assay [3] was determined as 26 nM. Further, the IC50 in assay [2] came out at 547 nM.

Regarding `N[C@]1(C(=O)O)[C@@H]2[C@@H](C(=O)O)[C@@H]2[C@H](O)[C@H]1CSc1cccc(F)c1`, the inhibition constant (Ki) turned out to be 25.1 nM in assay [3] and 43.7 nM in assay [4]. The IC50 was found to be 76.2 nM in assay [5] and 272 nM in assay [2].

`N[C@@]1(C(=O)O)CC[C@H]2[C@H](C(=O)O)[C@H]21`: the IC50 in assay [1] came out at 7 nM; in assay [6], 27.9 nM.
